Experimental data taken from article PMC6048268, “Resveratrol Inhibits Key Steps of Steroid Metabolism in a Human Estrogen-Receptor Positive Breast Cancer Model: Impact on Cellular Proliferation” (Frontiers in Pharmacology, 2018).
“And” between values parts separate entries of the source, which are not always exact repeats. Identical values can stand only once. Like-named read-outs stand apart in the source and are kept apart here.

How the values were obtained:
MDA-MB-231 cells = conditions: for Km / Vmax: MDA-MB-231, precursor DHEA or E1 0–100 nM, Michaelis–Menten
Procedure: (§1) Briefly, cartridges were preconditioned with 2 × 1.0 ml acetonitrile and 3 × 1.0 ml ammonium acetate buffer (10 mM, pH = 5.0), and the samples were loaded onto the columns. After washing with 1 × 1.0 ml ammonium acetate buffer (10 mM, pH = 5.0) and 2 × 1.0 ml acetonitrile/ammonium acetate buffer (10 mM, pH 5.0) 10:90 (v/v), the analytes were eluted using 2 × 650 μl acetonitrile/ammonium acetate buffer (10 mM, pH = 5.0) 95:5 (v/v) and evaporated until dry. Subsequently, samples were reconstituted in 270 μl acetonitrile/ammonium acetate buffer (10 mM, pH = 5.0) 25:75 (v/v) and stored at -80°C until further LC–HRMS analysis.
(§2) After media collection, cell monolayers were washed five times with 2.0 ml DPBS, detached using 400 μl TrypLE® solution (37°C, 5 min), mixed with 600 μl DPBS and transferred into sample vials. Aliquots of these suspensions (100 μl each) were diluted and counted using the Casy® TT Cell Counter to determine the exact number of cells per sample well. The remaining cell suspensions (900 μl each) were gently centrifuged (1000 rpm, 8 min), and the supernatants were discarded. The cell pellets were subsequently resuspended in 100 μl aqueous ammonium acetate buffer (10 mM, pH = 5.0) and lysed by five freeze-thaw-cycles in liquid nitrogen (3 min each), followed by thawing at ambient temperature. Ammonium acetate buffer (1000 μl) was added, and the suspensions were centrifuged (14000 rpm, 5 min). Subsequently, the supernatants were concentrated using the same SPE protocol as described above. All processed samples were then stored at -80°C until further LC–HRMS analysis. For each condition, three biologically independent experiments were performed; the reported values represent the overall means ± SD of all values.
(§3) LC was performed with an UltiMate 3000 RSLC-series system coupled to a maXis HD ESI-Qq-TOF mass spectrometer (Bruker Corporation, Bremen, Germany). A Phenomenex Luna® 3 μm C18(2) 100 Å LC column (250 mm × 4.6 mm I.D.; Phenomenex, Inc., Torrance, CA, United States), preceded by a Hypersil® BDS-C18 guard column (5 μm, 10 mm × 4.6 mm I.D.; Thermo Fisher Scientific, Inc.) was used for the separation of the analytes at a flow rate of 1.0 ml/min and a temperature of 43°C. […] The ESI ion source settings were as follows: capillary voltage: -4.5 kV; dry gas flow rate: 8.0 l/min N2; nebulizer: 1.0 bar N2; and dry temperature: 200°C. The ion transfer parameters were set to 400 Vpp funnel RF and 300 Vpp multipole RF, the quadrupole ion energy was 8.0 eV, and the collision cell parameters were as follows: collision RF, 1100 Vpp; collision energy, 10.0 eV; transfer time, 38 μs; and pre-pulse storage, 18 μs. In the range of m/z 150–500, full-scan mass spectra were recorded.
(§4) The modes of inhibition were subsequently determined from Lineweaver–Burk plots, and the corresponding Ki values were calculated from Dixon plots using GraphPad Prism 6.0.

MCF-7 cells = conditions: for Vmax: MCF-7, precursor DHEA or E1 0–100 nM, Michaelis–Menten
Procedure: as §1, §2, §3, §4

[1] = system: steroid metabolism in MCF-7 cells; test: Inhibition of steroid metabolism by RES in MCF-7 cells (LC–HRMS)
Procedure: as §1, §2, §3, §4

C[C@]12CC[C@@H]3c4ccc(O)cc4CC[C@H]3[C@@H]1C[C@@H](O)[C@@H]2O [E3, 16α-hydroxy-17β-estradiol]
formation rate (MDA-MB-231 cells; MDA-MB-231, 100 nM E1, 48 h): below the LLOQ | formation rate (MCF-7 cells; MCF-7, 100 nM E1, 48 h): 0.57 ± 0.06 fmol/10^6 cells/h

C[C@]12CC[C@@H]3c4ccc(OS(=O)(=O)O)cc4CC[C@H]3[C@@H]1CC[C@@H]2O [E2-S, 17β-estradiol-3-O-sulfate]
formation rate (MDA-MB-231 cells; MDA-MB-231, 100 nM E1, 48 h): 0.12 ± 0.02 fmol/10^6 cells/h | Km (MDA-MB-231 cells; 48 h): 0.038 ± 0.0136 µM | Vmax (MDA-MB-231 cells; 48 h): 0.16 ± 0.02 fmol/10^6 cells/h | formation rate (MCF-7 cells; MCF-7, 100 nM E1, 48 h): 11.8 ± 0.8 fmol/10^6 cells/h | Vmax (MCF-7 cells; 48 h): 24.7 ± 4.9 fmol/10^6 cells/h and 24.7 ± 4.9^∗ fmol/10^6 cells/h | Km ([1]; MCF-7, 0 μM RES): 0.104 ± 0.0155 µM | Vmax ([1]; MCF-7, 0 μM RES): 24.7 ± 4.9 fmol/10^6 cells/h | Km ([1]; MCF-7, 5 μM RES): 0.106 ± 0.0159 µM | Vmax ([1]; MCF-7, 5 μM RES): 6.64 ± 0.58^∗ fmol/10^6 cells/h | Km ([1]; MCF-7, 10 μM RES): 0.0993 ± 0.0128 µM | Vmax ([1]; MCF-7, 10 μM RES): 2.34 ± 0.19^∗ fmol/10^6 cells/h | Km ([1]; MCF-7, 25 μM RES): 0.0949 ± 0.0147 µM | Vmax ([1]; MCF-7, 25 μM RES): 1.01 ± 0.10^∗ fmol/10^6 cells/h | Km ([1]; MCF-7, 50 μM RES): 0.101 ± 0.0112 µM | Vmax ([1]; MCF-7, 50 μM RES): 0.56 ± 0.01^∗ fmol/10^6 cells/h | Km ([1]; MCF-7, 100 μM RES): 0.0997 ± 0.006 µM | Vmax ([1]; MCF-7, 100 μM RES): 0.27 ± 0.01^∗ fmol/10^6 cells/h

C[C@]12CC[C@@H]3c4ccc(O[C@@H]5O[C@H](C(=O)O)[C@@H](O)[C@H](O)[C@H]5O)cc4CC[C@H]3[C@@H]1CC[C@@H]2O [E2-G, 17β-estradiol-3-O-(β-D-glucuronide)]
Km (MDA-MB-231 cells; 48 h): 0.0879 ± 0.0322 µM | Vmax (MDA-MB-231 cells; 48 h): 0.33 ± 0.07 fmol/10^6 cells/h | formation rate (MDA-MB-231 cells; human, 48 h, 100 nM): 0.18 ± 0.02 fmol/10^6 cells/h | Vmax (MCF-7 cells; 48 h): 7.29 ± 1.36 fmol/10^6 cells/h and 7.29 ± 1.36^∗ fmol/10^6 cells/h | formation rate (MCF-7 cells; human, 48 h, 100 nM): 3.23 ± 0.45 fmol/10^6 cells/h | Km ([1]; MCF-7, 0 μM RES): 0.123 ± 0.0084 µM | Vmax ([1]; MCF-7, 0 μM RES): 7.29 ± 0.36 fmol/10^6 cells/h | Km ([1]; MCF-7, 5 μM RES): 0.135 ± 0.0059 µM | Vmax ([1]; MCF-7, 5 μM RES): 7.00 ± 0.20 fmol/10^6 cells/h | Km ([1]; MCF-7, 10 μM RES): 0.136 ± 0.006 µM | Vmax ([1]; MCF-7, 10 μM RES): 4.98 ± 0.14^∗ fmol/10^6 cells/h | Km ([1]; MCF-7, 25 μM RES): 0.132 ± 0.008 µM | Vmax ([1]; MCF-7, 25 μM RES): 2.60 ± 0.12^∗ fmol/10^6 cells/h | Km ([1]; MCF-7, 50 μM RES): 0.126 ± 0.0132 µM | Vmax ([1]; MCF-7, 50 μM RES): 1.51 ± 0.11^∗ fmol/10^6 cells/h | Km ([1]; MCF-7, 100 μM RES): 0.132 ± 0.0039 µM | Vmax ([1]; MCF-7, 100 μM RES): 0.77 ± 0.02^∗ fmol/10^6 cells/h

C[C@]12CCC(=O)C=C1CC[C@@H]1[C@@H]2CC[C@]2(C)C(=O)CC[C@@H]12 [AD, 4-androstene-3,17-dione]
mean formation rate (MDA-MB-231 cells; MDA-MB-231, 100 nM DHEA, 48 h): 888.9 ± 60.1 fmol/10^6 cells/h | Km (MDA-MB-231 cells; 48 h): 0.126 ± 0.0366 µM | Vmax (MDA-MB-231 cells; 48 h): 1994.0 ± 364.5 fmol/10^6 cells/h | mean formation rate (MCF-7 cells; MCF-7, 100 nM DHEA, 48 h): 68.5 ± 11.1 fmol/10^6 cells/h | Vmax (MCF-7 cells; 48 h): 147.4 ± 8.1^∗ fmol/10^6 cells/h | Km ([1]; MCF-7, 0 μM RES): 0.115 ± 0.0096 µM | Vmax ([1]; MCF-7, 0 μM RES): 147.4 ± 13.1 fmol/10^6 cells/h | formation rate in the presence of RES ([1]; MCF-7, 100 nM DHEA + 100 μM RES, 48 h): 165.1 ± 18.7 fmol/10^6 cells/h | Km ([1]; MCF-7, 5 μM RES): 0.104 ± 0.0104 µM | Vmax ([1]; MCF-7, 5 μM RES): 148.5 ± 9.4 fmol/10^6 cells/h | Km ([1]; MCF-7, 10 μM RES): 0.102 ± 0.0079 µM | Vmax ([1]; MCF-7, 10 μM RES): 172.6 ± 7.7^∗ fmol/10^6 cells/h | Km ([1]; MCF-7, 25 μM RES): 0.112 ± 0.0107 µM | Vmax ([1]; MCF-7, 25 μM RES): 242.0 ± 14.4^∗ fmol/10^6 cells/h | Km ([1]; MCF-7, 50 μM RES): 0.106 ± 0.0042 µM | Vmax ([1]; MCF-7, 50 μM RES): 295.3 ± 9.4^∗ fmol/10^6 cells/h | Km ([1]; MCF-7, 100 μM RES): 0.0996 ± 0.0082 µM | Vmax ([1]; MCF-7, 100 μM RES): 328.8 ± 12.9^∗ fmol/10^6 cells/h

C[C@]12CC[C@@H]3c4ccc(OS(=O)(=O)O)cc4CC[C@H]3[C@@H]1CCC2=O [E1-S, estrone-3-O-sulfate]
formation rate (MDA-MB-231 cells; MDA-MB-231, 100 nM E1, 48 h): 0.49 ± 0.07 fmol/10^6 cells/h | Km (MDA-MB-231 cells; 48 h): 0.12 ± 0.0681 µM | Vmax (MDA-MB-231 cells; 48 h): 1.08 ± 0.38 fmol/10^6 cells/h | formation rate (MCF-7 cells; MCF-7, 100 nM E1, 48 h): 15.1 ± 0.8 fmol/10^6 cells/h | Vmax (MCF-7 cells; 48 h): 30.4 ± 2.5 fmol/10^6 cells/h and 30.4 ± 2.5^∗ fmol/10^6 cells/h | Km ([1]; MCF-7, 0 μM RES): 0.102 ± 0.0129 µM | Vmax ([1]; MCF-7, 0 μM RES): 30.4 ± 0.5 fmol/10^6 cells/h | Km ([1]; MCF-7, 5 μM RES): 0.094 ± 0.012 µM | Vmax ([1]; MCF-7, 5 μM RES): 4.51 ± 0.33^∗ fmol/10^6 cells/h | Km ([1]; MCF-7, 10 μM RES): 0.101 ± 0.0086 µM | Vmax ([1]; MCF-7, 10 μM RES): 2.54 ± 0.21^∗ fmol/10^6 cells/h | Km ([1]; MCF-7, 25 μM RES): 0.12 ± 0.0155 µM | Vmax ([1]; MCF-7, 25 μM RES): 1.23 ± 0.11^∗ fmol/10^6 cells/h | Km ([1]; MCF-7, 50 μM RES): 0.109 ± 0.0041 µM | Vmax ([1]; MCF-7, 50 μM RES): 0.57 ± 0.02^∗ fmol/10^6 cells/h | Km ([1]; MCF-7, 100 μM RES): 0.105 ± 0.009 µM | Vmax ([1]; MCF-7, 100 μM RES): 0.28 ± 0.01^∗ fmol/10^6 cells/h
